Assay results taken from the supplement of paper PMC10307832.

Assays:
Assay in all cases: relative viability (nuclei count vs DMSO), 5 days (fraction); higher = more cells survive
[1] = compound: CC1=C(C(=O)N2C=CSC2=N1)CCN3CCC(=C(C4=CC=CC=C4)C5=CC=C(C=C5)F)CC3 + COc1cccc2cc(-c3nc([C@H]4CC[C@H](C(=O)O)CC4)n4ncnc(N)c34)[nH]c12 [OSI-027] (partner 0.5 µM)
How it was run: (§1)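 The day after seeding in 1536-well plates, lung cancer cell lines were treated by pin tool with a single drug, or with a fixed anchor-drug dose together with five library-drug doses (not always all listed) in √10 steps. After 5 days, a combined fix-and-stain solution (final 0.05% Triton X-100, 1% formaldehyde, 1 ug/ml Hoechst) was added. Nuclei counted on 4× images gave relative viability as treated counts over vehicle counts, reported as the median of duplicate plates.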

[2] = compound: CC1=C(C(=O)N2C=CSC2=N1)CCN3CCC(=C(C4=CC=CC=C4)C5=CC=C(C=C5)F)CC3 + CS(=O)(=O)CCNCc1ccc(-c2ccc3ncnc(Nc4ccc(OCc5cccc(F)c5)c(Cl)c4)c3c2)o1 [Lapatinib] (partner 2 µM)
How it was run: as §1

[3] = compound: CC1=C(C(=O)N2C=CSC2=N1)CCN3CCC(=C(C4=CC=CC=C4)C5=CC=C(C=C5)F)CC3 + C[C@]1(O)C[C@@H](c2nc(-c3ccc4ccc(-c5ccccc5)nc4c3)c3c(N)nccn32)C1 [Linsitinib] (partner 1 µM)
How it was run: as §1

[4] = compound: CC1=C(C(=O)N2C=CSC2=N1)CCN3CCC(=C(C4=CC=CC=C4)C5=CC=C(C=C5)F)CC3 + Cc1nc(NC(=O)N2CCC[C@H]2C(N)=O)sc1-c1ccnc(C(C)(C)C(F)(F)F)c1 [Alpelisib] (partner 2 µM)
How it was run: as §1

Cell Line	relative viability ([1]; first compound 0.08 µM)	relative viability ([1]; first compound 0.253 µM)	relative viability ([1]; first compound 0.8 µM)	relative viability ([1]; first compound 2.53 µM)	relative viability ([1]; first compound 8 µM)	relative viability ([2]; first compound 0.08 µM)	relative viability ([2]; first compound 0.253 µM)	relative viability ([2]; first compound 0.8 µM)	relative viability ([2]; first compound 2.53 µM)	relative viability ([2]; first compound 8 µM)	relative viability ([3]; first compound 0.08 µM)	relative viability ([3]; first compound 0.253 µM)	relative viability ([3]; first compound 0.8 µM)	relative viability ([3]; first compound 2.53 µM)	relative viability ([3]; first compound 8 µM)	relative viability ([4]; first compound 0.08 µM)	relative viability ([4]; first compound 0.253 µM)	relative viability ([4]; first compound 0.8 µM)	relative viability ([4]; first compound 2.53 µM)	relative viability ([4]; first compound 8 µM)
NCI-H3122	0.916	1.02	1.11	1.07	0.596	1.01	1.14	1.03	1.2	0.964	1.04	1.05	0.998	1.19	1.02	0.794	0.701	0.781	0.915	0.752
PC-3 [JPC-3]	0.783	0.662	0.831	0.772	0.633	0.392	0.496	0.454	0.454	0.449	0.884	0.914	1.01	1.04	0.893	0.959	1.1	1.07	1.08	0.899
PC-14	0.529	0.981	1.04	1.17	0.507	0.296	0.335	0.301	0.352	0.295	0.904	1.07	1.02	0.947	0.734	0.738	1.04	0.955	0.979	0.624
RERF-LC-KJ	0.411	0.583	0.546	0.523	0.497	0.873	0.753	0.921	0.907	0.666	0.879	0.933	0.883	0.832	0.672	0.743	0.844	0.8	0.758	0.633
SK-LU-1	0.396	0.341	0.38	0.318	0.294	0.675	0.918	1.05	1.07	0.62	1.17	0.93	1.15	1.38	0.814	1.24	0.925	1.13	1.33	0.826
SK-MES-1	0.405	0.524	0.587	0.554	0.706	0.453	0.537	0.478	0.437	0.481	1.1	1.2	1.08	1.03	0.789	0.881	0.944	0.835	0.87	0.554
SW 1573	–	0.645	0.716	0.676	0.351	1.26	1.2	1.05	1.27	1.06	0.843	0.804	0.795	0.835	0.721	0.829	0.829	0.739	0.657	0.469
UMC-11	0.591	0.469	0.504	0.48	0.351	0.999	0.745	0.86	1.21	0.821	1.06	0.972	1.04	1.33	0.824	1.1	0.765	0.977	1.29	0.732
